Measurements: patent US8415469B2, “Compounds and methods for kinase modulation, and indications therefor” (Plexxikon Inc., priority 2005, dated 2013)

Assays:
Type in all cases: biochemical
Abl = target: T1, Abl (Homo sapiens, UniProt P00519); test: AlphaScreen kinase assay, Abl; details: read-out: activity toward kinase Abl, IC50
T1 construct: P1121. pET-SPEC BI-PTP Abl G227-V515-X; His6 (N); made in house; host or cells: E. coli (PTP1B co-expressed)
T1 sequence (P00519 with tags, fused parts or gaps): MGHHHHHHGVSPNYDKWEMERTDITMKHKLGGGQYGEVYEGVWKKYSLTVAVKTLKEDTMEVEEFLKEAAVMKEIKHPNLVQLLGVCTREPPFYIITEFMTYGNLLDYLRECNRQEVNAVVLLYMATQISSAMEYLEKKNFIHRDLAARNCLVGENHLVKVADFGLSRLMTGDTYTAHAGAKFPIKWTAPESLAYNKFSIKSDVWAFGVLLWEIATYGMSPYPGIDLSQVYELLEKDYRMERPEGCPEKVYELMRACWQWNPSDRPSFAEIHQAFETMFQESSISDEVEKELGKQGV
Method in brief: (§1)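 Inhibition reads as diminished acceptor emission, since unphosphorylated peptide fails to bridge antibody acceptor beads and streptavidin donor beads. Titration: eight points, 1:3 steps, stocks at 20 mM in DMSO.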

c-Raf-1 = target: T2, c-Raf-1 (Homo sapiens, UniProt P04049); test: AlphaScreen kinase assay, c-Raf-1; details: read-out: IC50, activity toward kinase c-Raf-1
T2 construct: purchased Upstate Biotechnology
T2 sequence (P04049 whole entry): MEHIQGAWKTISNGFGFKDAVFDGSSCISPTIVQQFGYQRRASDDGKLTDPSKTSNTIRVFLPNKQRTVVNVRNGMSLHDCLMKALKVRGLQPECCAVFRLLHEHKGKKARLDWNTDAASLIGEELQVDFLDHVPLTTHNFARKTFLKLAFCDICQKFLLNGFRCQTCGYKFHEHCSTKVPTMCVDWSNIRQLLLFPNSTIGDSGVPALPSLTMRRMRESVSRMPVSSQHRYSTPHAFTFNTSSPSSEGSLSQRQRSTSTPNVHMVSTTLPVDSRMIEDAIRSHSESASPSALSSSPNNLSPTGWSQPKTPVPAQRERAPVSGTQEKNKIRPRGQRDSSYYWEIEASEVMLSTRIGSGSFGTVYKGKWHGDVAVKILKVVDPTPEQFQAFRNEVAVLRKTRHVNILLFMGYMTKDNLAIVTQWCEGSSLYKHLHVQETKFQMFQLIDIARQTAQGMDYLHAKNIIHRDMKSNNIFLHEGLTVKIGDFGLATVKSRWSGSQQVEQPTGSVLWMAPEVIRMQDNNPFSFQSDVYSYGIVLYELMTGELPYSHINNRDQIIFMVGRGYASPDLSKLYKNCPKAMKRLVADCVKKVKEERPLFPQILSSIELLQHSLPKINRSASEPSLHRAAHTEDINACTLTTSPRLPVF

Fak = target: T3, Fak (Homo sapiens, UniProt Q05397); test: AlphaScreen kinase assay, Fak; details: read-out: IC50, activity toward kinase Fak
T3 construct: P1358.pFastBacHtb FAK S411-Q686-X; His6 with pFastBacHTb leader (TEV site) (N); made in house; host or cells: Sf9 (baculovirus)
T3 sequence (Q05397 411-686): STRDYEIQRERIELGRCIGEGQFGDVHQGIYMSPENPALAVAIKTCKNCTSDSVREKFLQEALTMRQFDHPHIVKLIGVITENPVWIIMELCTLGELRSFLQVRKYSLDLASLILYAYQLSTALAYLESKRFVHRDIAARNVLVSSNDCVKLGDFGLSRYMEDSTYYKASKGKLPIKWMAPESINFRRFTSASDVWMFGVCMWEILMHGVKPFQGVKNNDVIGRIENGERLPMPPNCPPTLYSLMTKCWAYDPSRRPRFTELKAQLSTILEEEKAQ

Jnk3 = target: T4, Jnk3 (Homo sapiens, UniProt P53779); test: AlphaScreen kinase assay, Jnk3; details: read-out: IC50, activity toward kinase Jnk3
T4 construct: purchased Upstate Biotechnology
T4 sequence (P53779 whole entry): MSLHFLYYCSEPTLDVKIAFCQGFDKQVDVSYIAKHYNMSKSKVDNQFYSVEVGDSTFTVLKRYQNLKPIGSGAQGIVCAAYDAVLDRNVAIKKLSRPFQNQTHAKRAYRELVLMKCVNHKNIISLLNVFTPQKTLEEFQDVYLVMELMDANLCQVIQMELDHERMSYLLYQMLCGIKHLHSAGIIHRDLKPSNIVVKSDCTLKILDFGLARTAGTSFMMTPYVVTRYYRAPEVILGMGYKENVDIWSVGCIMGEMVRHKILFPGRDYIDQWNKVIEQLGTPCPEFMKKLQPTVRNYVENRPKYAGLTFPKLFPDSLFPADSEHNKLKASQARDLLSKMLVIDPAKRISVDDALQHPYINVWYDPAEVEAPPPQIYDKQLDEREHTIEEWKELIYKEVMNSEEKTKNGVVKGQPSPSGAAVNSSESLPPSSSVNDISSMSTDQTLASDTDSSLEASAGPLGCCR

Pyk2 = target: T5, Pyk2 (Homo sapiens, UniProt Q14289); test: AlphaScreen kinase assay, Pyk2; details: read-out: IC50, activity toward kinase Pyk2
T5 construct: purchased Upstate Biotechnology
T5 sequence (Q14289 whole entry): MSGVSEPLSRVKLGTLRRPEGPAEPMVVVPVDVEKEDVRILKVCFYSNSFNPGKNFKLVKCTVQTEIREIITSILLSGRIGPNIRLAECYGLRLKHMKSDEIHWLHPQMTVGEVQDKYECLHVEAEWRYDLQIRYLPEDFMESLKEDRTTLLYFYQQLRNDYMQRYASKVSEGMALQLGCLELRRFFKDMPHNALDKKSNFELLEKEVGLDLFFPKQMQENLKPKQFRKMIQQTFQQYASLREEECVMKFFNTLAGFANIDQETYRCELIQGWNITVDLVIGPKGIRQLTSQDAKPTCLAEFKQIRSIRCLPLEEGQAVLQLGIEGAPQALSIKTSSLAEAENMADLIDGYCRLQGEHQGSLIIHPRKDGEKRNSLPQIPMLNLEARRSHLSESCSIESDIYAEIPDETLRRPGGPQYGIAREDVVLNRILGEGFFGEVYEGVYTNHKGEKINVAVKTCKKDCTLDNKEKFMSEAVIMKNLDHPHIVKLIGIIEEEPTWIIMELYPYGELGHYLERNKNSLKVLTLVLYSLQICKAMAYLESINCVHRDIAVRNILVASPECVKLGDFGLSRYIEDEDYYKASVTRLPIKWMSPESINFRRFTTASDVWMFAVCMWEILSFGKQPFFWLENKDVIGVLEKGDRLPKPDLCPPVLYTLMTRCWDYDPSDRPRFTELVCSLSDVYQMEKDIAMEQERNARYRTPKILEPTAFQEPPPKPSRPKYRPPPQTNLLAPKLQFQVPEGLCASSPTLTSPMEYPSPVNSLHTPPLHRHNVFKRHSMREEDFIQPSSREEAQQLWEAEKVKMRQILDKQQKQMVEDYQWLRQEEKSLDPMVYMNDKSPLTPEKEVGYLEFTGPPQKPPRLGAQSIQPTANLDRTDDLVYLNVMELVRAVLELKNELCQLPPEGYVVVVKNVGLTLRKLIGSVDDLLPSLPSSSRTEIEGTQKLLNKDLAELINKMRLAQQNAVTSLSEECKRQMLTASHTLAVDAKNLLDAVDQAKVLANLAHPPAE

Flt1 = target: T6, Flt1 (Homo sapiens, UniProt P17948); test: AlphaScreen kinase assay, Flt1; details: read-out: IC50, activity toward kinase Flt1
T6 construct: P1826.pETN6 BI-PTP FLT1 M799-D1165-X WT; His6 (N); made in house; host or cells: E. coli (PTP1B co-expressed)
T6 sequence (P17948 with tags, fused parts or gaps): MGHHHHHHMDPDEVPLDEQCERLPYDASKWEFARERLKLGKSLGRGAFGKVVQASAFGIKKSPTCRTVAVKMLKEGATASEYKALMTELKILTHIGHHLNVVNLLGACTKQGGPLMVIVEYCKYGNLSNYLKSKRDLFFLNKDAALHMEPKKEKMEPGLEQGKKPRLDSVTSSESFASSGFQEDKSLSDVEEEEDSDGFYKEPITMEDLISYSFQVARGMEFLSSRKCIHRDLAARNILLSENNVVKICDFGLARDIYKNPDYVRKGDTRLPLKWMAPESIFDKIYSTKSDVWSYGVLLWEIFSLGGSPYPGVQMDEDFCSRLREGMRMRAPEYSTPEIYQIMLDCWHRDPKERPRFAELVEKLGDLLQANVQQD

Akt3 = Akt3 (Homo sapiens, UniProt Q9Y243); test: AlphaScreen kinase assay, Akt3; details: read-out: IC50, activity toward kinase Akt3
Akt3, sequence (Q9Y243 whole entry): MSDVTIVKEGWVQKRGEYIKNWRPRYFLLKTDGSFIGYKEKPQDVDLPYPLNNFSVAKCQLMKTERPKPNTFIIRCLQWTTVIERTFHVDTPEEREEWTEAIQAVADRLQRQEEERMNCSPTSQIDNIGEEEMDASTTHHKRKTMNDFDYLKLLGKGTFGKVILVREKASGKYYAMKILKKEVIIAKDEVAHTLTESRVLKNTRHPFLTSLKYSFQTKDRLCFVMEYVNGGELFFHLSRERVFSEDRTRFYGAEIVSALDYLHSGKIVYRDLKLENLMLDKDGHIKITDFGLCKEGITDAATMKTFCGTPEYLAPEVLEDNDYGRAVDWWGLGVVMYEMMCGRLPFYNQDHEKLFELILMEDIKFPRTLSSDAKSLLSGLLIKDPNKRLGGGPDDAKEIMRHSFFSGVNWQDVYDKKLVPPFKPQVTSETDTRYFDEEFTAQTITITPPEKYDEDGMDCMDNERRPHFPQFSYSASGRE
Method in brief: as §1

Measured: IC50

CCCS(=O)(=O)Nc1ccc(F)c(C(=O)c2c[nH]c3ncccc23)c1F [Compound P-0007, Propane-1-sulfonic acid [2,4-difluoro-3-(1H-pyrrolo[2,3-b]pyridine-3-carbonyl)-phenyl]-amide]
≤ 10 µM: Abl | c-Raf-1 | Fak

O=C(O)/C=C/c1cccc(-c2cnc3[nH]cc(C(=O)c4cc(O)ccc4F)c3c2)c1 [Compound P-0010]
≤ 10 µM: Abl | c-Raf-1 | Jnk3 | Pyk2

O=C(c1cccc(O)c1)c1c[nH]c2ncccc12 [Compound P-0011]
≤ 10 µM: Abl | Flt1

O=C(c1cccc(O)c1)c1c[nH]c2nccc(Cl)c12 [Compound P-0012]
≤ 10 µM: Abl | Flt1

Cc1ccccc1C(=O)c1c[nH]c2nccc(-c3ccc(C(N)=O)cc3)c12 [Compound P-0017]
≤ 10 µM: Flt1

O=C(c1ccc(O)cc1Cl)c1c[nH]c2ncccc12 [Compound P-0021]
≤ 10 µM: c-Raf-1 | Flt1 | Pyk2 | Akt3

O=C(c1cc(O)ccc1F)c1c[nH]c2ncc(-c3cccs3)cc12 [Compound P-0032]
not listed: Akt3
≤ 10 µM: all other assays above

O=C(O)/C=C/c1cccc(-c2cnc3[nH]cc(C(=O)c4ccccc4F)c3c2)c1 [Compound P-0033]
≤ 10 µM: Abl | Flt1 | Jnk3

O=C(c1cccc(O)c1F)c1c[nH]c2ncc(-c3ccccc3)cc12 [Compound P-0036, (2-fluoro-3-hydroxy-phenyl)-(5-phenyl-1H-pyrrolo[2,3-b]pyridin-3-yl)-methanone]
not listed: Abl | Pyk2
≤ 10 µM: all other assays above

Cc1ccc(F)cc1C(=O)c1c[nH]c2ncc(-c3cccc(N)c3)cc12 [Compound P-0040]
≤ 10 µM: Abl | Jnk3

O=C(c1cc(O)ccc1F)c1c[nH]c2ncc(-c3ccccc3)cc12 [Compound P-0045]
≤ 10 µM: Abl | c-Raf-1 | Fak | Jnk3

Cc1ccc(F)cc1C(=O)c1c[nH]c2ncc(-c3ccc(C(N)=O)cc3)cc12 [Compound P-0050]
≤ 10 µM: Abl

Cc1c(O)cccc1C(=O)c1c[nH]c2ncc(Br)cc12 [Compound P-0055, (5-Bromo-1H-pyrrolo[2,3-b]pyridin-3-yl)-(3-hydroxy-2-methyl-phenyl)-methanone]
≤ 10 µM: c-Raf-1 | Fak | Flt1 | Akt3

Oc1cccc(Cc2c[nH]c3ncc(-c4ccsc4)cc23)c1 [Compound P-0056]
≤ 10 µM: Abl | Flt1 | Jnk3 | Pyk2

O=C(c1cccc(O)c1F)c1c[nH]c2ncc(Br)cc12 [Compound P-0067, (5-bromo-1H-pyrrolo[2,3-b]pyridin-3-yl)-(2-fluoro-3-hydroxy-phenyl)-methanone]
≤ 10 µM: Fak | Flt1 | Akt3

O=C(c1cc(O)ccc1F)c1c[nH]c2ncc(Br)cc12 [Compound P-0068, (5-Bromo-1H-pyrrolo[2,3-b]pyridin-3-yl)-(2-fluoro-5-hydroxy-phenyl)-methanone]
≤ 10 µM: Abl | Flt1

Cc1ccc(S(=O)(=O)NCc2c[nH]c3nccc(-c4cccc(C#N)c4)c23)cc1 [Compound P-0072]
≤ 10 µM: Abl | Flt1

CCCS(=O)(=O)Nc1ccc(F)c(C(=O)c2c[nH]c3ncc(-c4cccnc4)cc23)c1F [Compound P-0088, Propane-1-sulfonic acid [2,4-difluoro-3-(5-pyridin-3-yl-1H-pyrrolo[2,3-b]pyridine-3-carbonyl)-phenyl]-amide]
not listed: Abl | Akt3
≤ 10 µM: all other assays above

COc1ccc(F)c(C(=O)c2c[nH]c3ncc(-c4cccnc4)cc23)c1 [Compound P-0090]
≤ 10 µM: Abl | c-Raf-1 | Flt1 | Jnk3

Oc1cc(O)cc(Cc2c[nH]c3ncc(-c4ccsc4)cc23)c1 [Compound P-0093]
≤ 10 µM: Abl | Jnk3

CS(=O)(=O)c1cccc(-c2cnc3[nH]cc(C(=O)c4c(F)ccc(F)c4F)c3c2)c1 [Compound P-0102, [5-(3-Methanesulfonyl-phenyl)-1H-pyrrolo[2,3-b]pyridin-3-yl]-(2,3,6-trifluoro-phenyl)-methanone]
≤ 10 µM: c-Raf-1 | Fak | Jnk3

O=C(c1ccccc1F)c1c[nH]c2ncc(-c3ccsc3)cc12 [Compound P-0134]
≤ 10 µM: Abl | Flt1 | Jnk3

CN(C)S(=O)(=O)Nc1ccc(F)c(Cc2c[nH]c3ncc(-c4cccnc4)cc23)c1F [Compound P-0166]
not listed: Abl | Akt3
≤ 10 µM: all other assays above

CCCS(=O)(=O)Nc1ccc(F)c(C(=O)c2c[nH]c3ncc(-c4ccccc4)cc23)c1F [Compound P-0636, Propane-1-sulfonic acid [2,4-difluoro-3-(5-phenyl-1H-pyrrolo[2,3-b]pyridine-3-carbonyl)-phenyl]-amide]
≤ 10 µM: c-Raf-1 | Flt1 | Jnk3 | Pyk2

CCCS(=O)(=O)Nc1ccc(F)c(C(=O)c2c[nH]c3ncc(OC)cc23)c1F [Compound P-0806, Propane-1-sulfonic acid [2,4-difluoro-3-(5-methoxy-1H-pyrrolo[2,3-b]pyridine-3-carbonyl)-phenyl]-amide]
≤ 10 µM: Abl | c-Raf-1 | Fak | Pyk2

CCCCNC(=O)Nc1ccc(F)c(C(=O)c2c[nH]c3ncc(-c4cccnc4)cc23)c1F [Compound P-1318, 1-Butyl-3-[2,4-difluoro-3-(5-pyridin-3-yl-1H-pyrrolo[2,3-b]pyridine-3-carbonyl)-phenyl]-urea]
not listed: Pyk2 | Akt3
≤ 10 µM: all other assays above

COc1cccc(C(=O)c2c[nH]c3ncc(-c4cccc(NC(C)=O)c4)cc23)c1F [Compound P-1336, N-{3-[3-(2-Fluoro-3-methoxy-benzoyl)-1H-pyrrolo[2,3-b]pyridin-5-yl]-phenyl}-acetamide]
≤ 10 µM: Abl | c-Raf-1 | Fak

COc1cc(OC)cc(C(=O)c2c[nH]c3ncc(-c4cccc(NS(C)(=O)=O)c4)cc23)c1 [Compound P-1426, N-{3-[3-(3,5-Dimethoxy-benzoyl)-1H-pyrrolo[2,3-b]pyridin-5-yl]-phenyl}-methanesulfonamide]
≤ 10 µM: Abl | Flt1
